# Results: ChEMBL document CHEMBL3301562, “MMV Box screening against Plasmodium falciparum protein kinases and aminoacyl tRNA synthetases”
# Columns and labels:
# Type in all cases: functional
# [1] = target: Calcium-dependent protein kinase 1 (Plasmodium falciparum, UniProt P62344); assay: MMV: CDPK1 Protein kinase inhibition assay using recombinant PfCDPK1, syntide 2 peptide substrate, ATP and KinaseGlo to measure % inhibition at 1 uM MMV box compound.
# [2] = target: T1, Proline--tRNA ligase (Plasmodium falciparum (isolate 3D7), UniProt Q8I5R7); assay: MMV: ProRS recombinant Plasmodium falciparum Prolyl-tRNA-synthetase, assay with yeast tRNA, ATP, and proline and 3 uM MMV malaria box compound, assay read out with kinase glo as % inhibition.
# T1 sequence (Q8I5R7 whole entry): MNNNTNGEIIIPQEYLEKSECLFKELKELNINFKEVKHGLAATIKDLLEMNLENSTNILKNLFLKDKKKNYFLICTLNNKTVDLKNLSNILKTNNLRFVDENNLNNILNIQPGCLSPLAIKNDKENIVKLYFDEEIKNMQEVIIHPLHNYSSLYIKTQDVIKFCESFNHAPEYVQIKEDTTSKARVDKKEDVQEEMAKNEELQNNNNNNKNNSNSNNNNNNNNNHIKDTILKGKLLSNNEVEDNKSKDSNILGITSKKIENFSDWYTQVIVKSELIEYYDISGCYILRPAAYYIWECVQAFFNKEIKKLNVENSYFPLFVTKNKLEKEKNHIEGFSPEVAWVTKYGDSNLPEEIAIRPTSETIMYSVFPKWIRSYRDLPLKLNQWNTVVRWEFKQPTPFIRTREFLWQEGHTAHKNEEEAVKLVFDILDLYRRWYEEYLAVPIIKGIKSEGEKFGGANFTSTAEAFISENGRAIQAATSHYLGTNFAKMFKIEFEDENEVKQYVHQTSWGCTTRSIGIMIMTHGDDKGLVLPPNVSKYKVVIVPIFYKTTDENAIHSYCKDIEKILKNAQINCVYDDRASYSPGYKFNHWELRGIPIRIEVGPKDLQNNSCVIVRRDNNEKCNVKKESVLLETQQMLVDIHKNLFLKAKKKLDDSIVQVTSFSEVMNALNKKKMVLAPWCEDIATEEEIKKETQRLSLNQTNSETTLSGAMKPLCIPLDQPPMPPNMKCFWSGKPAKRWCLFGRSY
# [3] = target: T2, Putative uncharacterized protein pk7 (Plasmodium falciparum, UniProt O96214); assay: Final concentrations were 1 uM ATP, 2 mM DTT, 20 mM MgCl2, 2 mM MnCl2, 0.01% BSA, and 6 ug/ml PK7, in a buffer of 20 mM Tris-HCl (pH 7.5). The enzyme itself was the only substrate present (since autophosphorylation occurs); 100 uM 1NA-PP1 was used as a control inhibitor. Incubation time was 3 hours.
# T2 sequence (O96214 whole entry): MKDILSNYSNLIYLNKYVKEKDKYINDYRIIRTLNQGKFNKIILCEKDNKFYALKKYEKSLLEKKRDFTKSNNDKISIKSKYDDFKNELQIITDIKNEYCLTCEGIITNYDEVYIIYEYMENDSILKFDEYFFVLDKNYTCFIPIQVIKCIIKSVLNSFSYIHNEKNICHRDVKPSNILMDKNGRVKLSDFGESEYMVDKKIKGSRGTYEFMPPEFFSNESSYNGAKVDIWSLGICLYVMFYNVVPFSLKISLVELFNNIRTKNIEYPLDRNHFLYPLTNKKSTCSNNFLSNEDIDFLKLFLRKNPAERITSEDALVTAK
# [4] = target: T3, Cdk-related protein kinase 6 (Plasmodium falciparum, UniProt O77239); assay: Final concentrations were 1.5 uM ATP, 5 mM MnCl2, and 15 ug/ml PK6 in a buffer of 100 mM Tris-HCl (pH 7.5). 50 ug/mL MBP was provided as the substrate; 10 uM staurosporine was used as a control inhibitor. Incubation time was 3 hours and 40 minutes.The catalytic activity of each kinase was considered proportional to ATP consumed, as determined from measurements of residual [ATP] with the luciferase-based reagent Kinase-Glo (Promega) following incubation. Luminescence (proportional to residual [ATP]) was measured on the plate readers FLx800 (BioTek Instruments, Winooski, VT, USA) and MicroBeta2.
# T3 sequence (O77239 whole entry): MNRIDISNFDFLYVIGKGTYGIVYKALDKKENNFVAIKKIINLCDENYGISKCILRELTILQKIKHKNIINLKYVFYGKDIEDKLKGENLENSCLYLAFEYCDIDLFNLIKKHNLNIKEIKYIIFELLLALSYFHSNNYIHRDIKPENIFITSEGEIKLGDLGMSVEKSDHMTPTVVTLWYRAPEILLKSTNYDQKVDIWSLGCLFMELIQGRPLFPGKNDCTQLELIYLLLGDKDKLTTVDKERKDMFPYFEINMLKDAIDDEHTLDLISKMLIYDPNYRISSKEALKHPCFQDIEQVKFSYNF
# [5] = target: Lysine--tRNA ligase (Plasmodium falciparum (isolate 3D7), UniProt Q8IDJ8); assay: MMV: KRS recombinant Plasmodium falciparum Lysyl-tRNA-synthetase, assay with yeast tRNA, ATP, and lysine and 3 uM MMV malaria box compound, assay read out with kinase glo as % inhibition.
# Chain of Lysine--tRNA ligase (Q8IDJ8 whole entry): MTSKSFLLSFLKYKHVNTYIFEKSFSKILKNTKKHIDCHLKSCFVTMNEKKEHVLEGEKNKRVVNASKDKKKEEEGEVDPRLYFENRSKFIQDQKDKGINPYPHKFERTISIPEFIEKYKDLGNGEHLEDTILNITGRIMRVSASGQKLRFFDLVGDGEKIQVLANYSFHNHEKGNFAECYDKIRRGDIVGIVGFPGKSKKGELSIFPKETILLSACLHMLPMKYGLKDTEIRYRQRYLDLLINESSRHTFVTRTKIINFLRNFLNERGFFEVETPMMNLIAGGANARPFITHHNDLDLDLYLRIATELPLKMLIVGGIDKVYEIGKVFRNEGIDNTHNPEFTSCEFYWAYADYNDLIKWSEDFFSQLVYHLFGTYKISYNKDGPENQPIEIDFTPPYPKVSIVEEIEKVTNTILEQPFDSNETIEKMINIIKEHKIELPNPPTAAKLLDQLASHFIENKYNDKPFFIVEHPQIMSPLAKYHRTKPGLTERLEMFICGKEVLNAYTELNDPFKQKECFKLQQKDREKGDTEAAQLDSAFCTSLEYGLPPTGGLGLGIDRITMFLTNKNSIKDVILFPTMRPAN
# [6] = target: T4, Mitogen-activated protein kinase (Plasmodium falciparum, UniProt Q25917); assay: Final concentrations were 1 uM ATP, 0.5 mM DTT, 1 mM MgCl2, 0.5 mg/mL BSA, and 10 ug/ml MAP2 in a buffer of 50 mM HEPES (pH 7.0). 0.5 mg/mL histone III-S served as the substrate (13); 100 uM AMP-PNP, an ATP analog, was used as a control inhibitor. Incubation time was 4 hours.
# T4 sequence (Q25917 whole entry): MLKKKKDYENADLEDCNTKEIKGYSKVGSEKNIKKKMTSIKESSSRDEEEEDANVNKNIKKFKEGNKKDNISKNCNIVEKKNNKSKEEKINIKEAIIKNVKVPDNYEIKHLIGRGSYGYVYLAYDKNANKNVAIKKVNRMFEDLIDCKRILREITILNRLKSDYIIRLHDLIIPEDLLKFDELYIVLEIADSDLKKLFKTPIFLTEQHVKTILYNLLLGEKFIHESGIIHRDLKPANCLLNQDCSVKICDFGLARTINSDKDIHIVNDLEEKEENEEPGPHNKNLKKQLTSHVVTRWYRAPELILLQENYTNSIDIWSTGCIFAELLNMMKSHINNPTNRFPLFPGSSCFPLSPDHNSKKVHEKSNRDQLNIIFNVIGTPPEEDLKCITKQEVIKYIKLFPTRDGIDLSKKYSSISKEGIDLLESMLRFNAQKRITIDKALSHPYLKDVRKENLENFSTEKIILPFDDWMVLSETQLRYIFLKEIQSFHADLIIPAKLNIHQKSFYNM
# [7] = target: T5, Calcium-dependent protein kinase 4 (Plasmodium falciparum (isolate 3D7), UniProt Q8IBS5); assay: MMV: CDPK4 Protein kinase inhibition assay using recombinant PfCDPK4, syntide2 peptide substrate, ATP and KinaseGlo to measure % inhibition at 1 uM MMV box compound.
# T5 sequence (Q8IBS5 whole entry): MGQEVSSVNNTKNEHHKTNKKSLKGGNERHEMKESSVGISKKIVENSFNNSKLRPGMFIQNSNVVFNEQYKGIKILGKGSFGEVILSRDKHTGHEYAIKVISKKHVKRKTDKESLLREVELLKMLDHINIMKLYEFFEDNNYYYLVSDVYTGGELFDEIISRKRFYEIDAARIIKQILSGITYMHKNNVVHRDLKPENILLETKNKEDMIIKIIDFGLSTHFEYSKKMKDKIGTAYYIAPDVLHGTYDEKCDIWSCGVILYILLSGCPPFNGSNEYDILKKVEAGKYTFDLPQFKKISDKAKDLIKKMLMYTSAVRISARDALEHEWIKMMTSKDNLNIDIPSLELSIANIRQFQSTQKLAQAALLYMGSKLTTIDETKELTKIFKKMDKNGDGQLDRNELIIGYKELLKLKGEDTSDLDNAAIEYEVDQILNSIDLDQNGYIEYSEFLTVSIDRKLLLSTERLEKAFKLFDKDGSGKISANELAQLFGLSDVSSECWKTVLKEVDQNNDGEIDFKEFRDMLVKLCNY
# Chain of Calcium-dependent protein kinase 1 (P62344 whole entry): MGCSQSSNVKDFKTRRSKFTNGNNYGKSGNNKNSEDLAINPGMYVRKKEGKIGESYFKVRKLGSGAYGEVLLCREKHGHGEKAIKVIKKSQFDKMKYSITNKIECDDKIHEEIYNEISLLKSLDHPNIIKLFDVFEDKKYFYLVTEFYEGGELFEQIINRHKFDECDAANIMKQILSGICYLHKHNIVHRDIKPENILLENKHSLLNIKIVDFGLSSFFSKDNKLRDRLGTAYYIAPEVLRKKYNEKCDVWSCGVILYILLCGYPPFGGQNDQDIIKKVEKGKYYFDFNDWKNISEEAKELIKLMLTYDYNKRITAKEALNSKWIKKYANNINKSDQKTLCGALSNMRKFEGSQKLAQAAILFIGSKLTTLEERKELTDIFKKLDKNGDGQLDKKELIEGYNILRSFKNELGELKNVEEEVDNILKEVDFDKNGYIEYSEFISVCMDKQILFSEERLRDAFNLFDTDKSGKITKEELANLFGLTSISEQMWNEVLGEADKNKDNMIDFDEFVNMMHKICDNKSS
SMILES,IC50 [1] [nM],IC50 [2] [nM],IC50 [3] [nM],IC50 [4] [nM],IC50 [5] [nM],IC50 [6] [nM],IC50 [7] [nM]
Cc1ccc(Nc2nc(NCCO)c3ccccc3n2)cc1C,> 1000,> 2500,> 1000,> 1000,> 2500,> 1000,> 1000
CC1(c2ccccc2)Nc2ccccc2-c2nc3ccccc3n21 (stereo not drawn),> 1000,> 2500,> 1000,> 1000,> 2500,> 1000,> 1000
O=C(NC1CCN(Cc2ccccc2)CC1)c1cc(C(=O)NC2CCN(Cc3ccccc3)CC2)cc(C(=O)NC2CCN(Cc3ccccc3)CC2)c1,> 1000,> 2500,> 1000,> 1000,> 2500,> 1000,> 1000
COc1ccccc1CNC(=O)CCn1c(=O)[nH]c2ccccc2c1=O,> 1000,> 2500,> 1000,> 1000,> 2500,> 1000,> 1000
Cc1ccccc1OCCSc1nc2ccc(NC(=O)c3ccccc3)cc2s1,> 1000,> 2500,> 1000,> 1000,> 2500,> 1000,> 1000
CCOc1ccc2c(c1)CN(Cc1ccc(Cl)cc1)CO2,> 1000,> 2500,> 1000,> 1000,> 2500,> 1000,> 1000
COc1ccc(C(C)=O)cc1N1C(=O)C2C(C1=O)C1(c3ccccc3)C(=O)C2(c2ccccc2)C(c2ccc(C)cc2)=C1c1ccc(C)cc1 (stereo not drawn),> 1000,> 2500,> 1000,> 1000,> 2500,> 1000,> 1000
CCOc1cc2c(cc1OCC)C(c1cc(Cl)c(O)c(OCC)c1)NCC2 (stereo not drawn),> 1000,> 2500,> 1000,> 1000,> 2500,> 1000,> 1000
COc1ccc2nc(C)cc(Nc3ccc(Cl)cc3)c2c1,> 1000,> 2500,> 1000,> 1000,> 2500,> 1000,> 1000
CC(=O)NCCc1nc2ccccc2n1Cc1ccc(C(C)C)cc1,> 1000,> 2500,> 1000,> 1000,> 2500,> 1000,> 1000
CCOc1ccc(N2C(N)=NC(N)=NC2(C)C)cc1,> 1000,> 2500,> 1000,> 1000,> 2500,> 1000,> 1000
COc1ccc2c(c1OC)C(=O)N1c3ccccc3N=C(c3ccc(C)cc3)CC21 (stereo not drawn),> 1000,> 2500,> 1000,> 1000,> 2500,> 1000,> 1000
CC(C)CCNCC(O)Cn1c2ccccc2c2ccccc21 (stereo not drawn),> 1000,> 2500,> 1000,> 1000,> 2500,> 1000,> 1000
COc1ccc(C(O)(CCC(C)C)C(CN2CCOCC2)c2ccc(Cl)cc2)cc1 (stereo not drawn),> 1000,> 2500,> 1000,> 1000,> 2500,> 1000,> 1000
